Reference: ChEMBL document CHEMBL1126955, “Substituted thiopyrano[2,3,4-c,d]indoles as potent, selective, and orally active inhibitors of 5-lipoxygenase. Synthesis and biological evaluation of L-691,816” (J Med Chem, 1993)

Key:
[1] = Maximum time taken for compound to reach peak concentration in rat plasma; format: ADME, organism-based
[2] = Bioavailability in rat (dose 20 mg/kg p.o. in 1% methocel, and 5 mg/kg i.v. in PEG400); format: ADME, organism-based; details: in vivo, po
Rattus norvegicus = assay: Tested for percent inhibition of dyspnea duration in hyperreactive rat model after peroral administration of 5 mg/kg; format: functional; details: route oral
[3] = target: T1, Polyunsaturated fatty acid 5-lipoxygenase (Homo sapiens, UniProt P09917); assay: In vitro inhibition of LTB4 biosynthesis in [Ca(2+)]-ionophore-activated human polymorphonuclear leukocytes; format: functional
T1 sequence (P09917 whole entry): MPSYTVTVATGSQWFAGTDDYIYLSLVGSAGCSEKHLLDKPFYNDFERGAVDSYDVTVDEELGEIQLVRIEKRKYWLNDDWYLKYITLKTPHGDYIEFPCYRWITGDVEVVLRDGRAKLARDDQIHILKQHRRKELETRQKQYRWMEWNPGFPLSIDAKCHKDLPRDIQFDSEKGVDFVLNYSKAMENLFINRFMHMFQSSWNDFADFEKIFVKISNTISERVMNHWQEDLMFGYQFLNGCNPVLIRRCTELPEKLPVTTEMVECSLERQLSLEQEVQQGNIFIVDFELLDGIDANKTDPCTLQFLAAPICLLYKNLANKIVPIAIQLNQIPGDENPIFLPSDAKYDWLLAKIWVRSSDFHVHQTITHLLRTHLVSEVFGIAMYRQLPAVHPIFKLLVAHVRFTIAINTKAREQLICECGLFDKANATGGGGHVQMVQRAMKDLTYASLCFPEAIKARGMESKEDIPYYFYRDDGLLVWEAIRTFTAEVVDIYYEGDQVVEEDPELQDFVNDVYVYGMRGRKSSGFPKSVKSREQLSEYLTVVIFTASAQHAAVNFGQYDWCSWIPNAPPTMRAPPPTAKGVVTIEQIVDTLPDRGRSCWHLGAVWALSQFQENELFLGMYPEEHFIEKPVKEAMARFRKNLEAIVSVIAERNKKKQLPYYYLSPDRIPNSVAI

[4] = target: T2, Polyunsaturated fatty acid 5-lipoxygenase (Rattus norvegicus, UniProt P12527); assay: In vitro test for inhibition of 5-lipoxygenase in cell-free preparations from rat PMN leukocytes
T2 sequence (P12527 whole entry): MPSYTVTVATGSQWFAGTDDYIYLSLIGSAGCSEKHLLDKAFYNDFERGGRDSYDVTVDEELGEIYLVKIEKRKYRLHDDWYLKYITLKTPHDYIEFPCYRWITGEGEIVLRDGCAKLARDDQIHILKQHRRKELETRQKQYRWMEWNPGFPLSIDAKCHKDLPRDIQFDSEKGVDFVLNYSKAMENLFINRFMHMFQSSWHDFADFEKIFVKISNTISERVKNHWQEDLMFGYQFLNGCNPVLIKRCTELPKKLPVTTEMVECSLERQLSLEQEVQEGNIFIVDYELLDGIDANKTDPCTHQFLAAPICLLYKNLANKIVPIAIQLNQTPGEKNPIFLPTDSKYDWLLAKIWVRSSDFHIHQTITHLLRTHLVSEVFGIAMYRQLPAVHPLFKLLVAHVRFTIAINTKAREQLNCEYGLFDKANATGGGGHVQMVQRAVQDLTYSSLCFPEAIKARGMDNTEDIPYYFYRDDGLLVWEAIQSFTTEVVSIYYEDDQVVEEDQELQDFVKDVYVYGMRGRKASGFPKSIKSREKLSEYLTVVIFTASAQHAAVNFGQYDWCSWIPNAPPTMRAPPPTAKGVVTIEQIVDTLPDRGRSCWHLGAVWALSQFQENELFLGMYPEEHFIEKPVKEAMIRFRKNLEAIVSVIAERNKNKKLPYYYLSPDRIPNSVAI

[5] = Peak concentration in rat plasma was determined; format: ADME, organism-based
[6] = target: T3, Arachidonate 5-lipoxygenase-activating protein (Homo sapiens, UniProt P20292); assay: Tested for inhibition of leukotriene biosynthesis by binding to 5-lipoxygenase activating protein
T3 sequence (P20292 whole entry): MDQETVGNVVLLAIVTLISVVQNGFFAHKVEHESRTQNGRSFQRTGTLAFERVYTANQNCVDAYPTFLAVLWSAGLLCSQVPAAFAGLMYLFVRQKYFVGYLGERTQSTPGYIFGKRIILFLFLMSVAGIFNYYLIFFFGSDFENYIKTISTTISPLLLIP

[7] = target: T4, Polyunsaturated fatty acid 5-lipoxygenase (Rattus norvegicus) (UniProt P12527); assay: Tested in vitro for the inhibition of 5-lipoxygenase in cell-free preparations from rat PMN leukocytes; details: concentration not given here
T4 sequence (whole entry): T2 sequence (P12527 whole entry)

| SMILES | IC50 [3] | IC50 [4] | other results |
| --- | --- | --- | --- |
| CC1Cc2c(OCc3ccc(-c4ccccc4)cn3)ccc3c2c(c(CC(C)(C)CC(=O)NS(C)(=O)=O)n3Cc2ccc(Cl)cc2)S1 (stereo unspecified) | 11 nM | 36 nM | Tmax [1]: 4 h; bioavailability [2]: 45%; inhibition in vivo at 5 mg/kg (Rattus norvegicus): 44%; Cmax [5]: 12 µM |
| CC(C)(Cc1c2c3c(c(OCc4ccc(-c5ccccc5)cn4)ccc3n1Cc1ccc(Cl)cc1)CCS2)C(=O)O | 100 nM | 200 nM | – |
| CC1Cc2c(OCc3ccc(-c4ccccc4)cc3)ccc3c2c(c(CC(C)(C)C(=O)O)n3Cc2ccc(Cl)cc2)S1 (stereo unspecified) | 165 nM | 1000 nM | – |
| CC1Cc2c(OCc3ccc(-c4ccccc4)cn3)ccc3c2c(c(CC(C)(C)C(=O)O)n3CCCc2ccccc2)S1 (stereo unspecified) | 23 nM | 35 nM | – |
| CC1Cc2c(OCc3ccc(-c4ccccc4)cn3)ccc3c2c(c(CC(C)(C)C(=O)O)n3CC2CCCCC2)S1 (stereo unspecified) | 33 nM | 35 nM | – |
| CC1Cc2c(SCc3ccc(-c4ccccc4)cn3)ccc3c2c(c(CC(C)(C)Cc2nnn[nH]2)n3Cc2ccc(Cl)cc2)S1 (stereo unspecified) | 11 nM | 120 nM | – |
| CC1Cc2c(OCc3ccc(C#N)cn3)ccc3c2c(c(CC(C)(C)C(=O)O)n3Cc2ccc(Cl)cc2)S1 (stereo unspecified) | 66 nM | 350 nM | – |
| CC1Cc2c(OCc3cc(-c4ccccc4)ccn3)ccc3c2c(c(CC(C)(C)C(=O)O)n3Cc2ccc(Cl)cc2)S1 (stereo unspecified) | 80 nM | 2000 nM | – |
| CC1Cc2c(OCc3ccc(-c4ccccc4)cn3)ccc3c2c(c(CC(C)(C)C(=O)O)n3Cc2ccccn2)S1 (stereo unspecified) | 110 nM | 45 nM | – |
| CC1Cc2c(OCc3ccc(-c4ccccc4)cn3)ccc3c2c(c(CC(C)(C)C(=O)O)n3Cc2ccc(Cl)cc2)S1(=O)=O (stereo unspecified) | 210 nM | 320 nM | – |
| CC1(C)Cc2c(OCc3ccc(-c4ccccc4)cn3)ccc3c2c(c(CC(C)(C)C(=O)O)n3Cc2ccc(Cl)cc2)S1 | 88 nM | 3000 nM | – |
| CC1Cc2c(OCc3cc4ccccc4cn3)ccc3c2c(c(CC(C)(C)C(=O)O)n3Cc2ccc(Cl)cc2)S1 (stereo unspecified) | 20 nM | 400 nM | IC50 [6]: 390 nM |
| CC1Cc2c(OCc3ccc4ccccc4n3)ccc3c2c(c(CC(C)(C)C(=O)O)n3Cc2ccc(Cl)cc2)S1 (stereo unspecified) | 3 nM | 600 nM | – |
| CC1Cc2c(OCc3ccc(-c4ccccc4)cn3)ccc3c2c(c(CC(C)(C)CC(=O)O)n3Cc2ccc(Cl)cc2)S1 (stereo unspecified) | 12 nM | 20 nM | Tmax [1]: 2 h; bioavailability [2]: 27%; inhibition in vivo at 5 mg/kg (Rattus norvegicus): 54%; Cmax [5]: 4 µM |
| CC1Cc2c(OCc3ccc(-c4ccccc4)cn3)ccc3c2c(c(CC(C)(C)CCC(=O)O)n3Cc2ccc(Cl)cc2)S1 (stereo unspecified) | 19 nM | 130 nM | – |
| CC1Cc2c(OCc3ccc(-c4ccccc4)cn3)ccc3c2c(c(CC(C)(C)C(=O)O)n3Cc2ccc(-c3ccccc3)cn2)S1 (stereo unspecified) | 16 nM | 30 nM | – |
| COc1cccc(Cn2c(CC(C)(C)C(=O)O)c3c4c(c(OCc5ccc(-c6ccccc6)cn5)ccc42)CC(C)S3)c1 (stereo unspecified) | 28 nM | 40 nM | – |
| CC1Cc2c(OCc3ccc(-c4ccccc4)cn3)ccc3c2c(c(CC(C)(C)C(=O)O)n3C)S1 (stereo unspecified) | 300 nM | – | – |
| COc1ccc(COc2ccc3c4c2CC(C)Sc4c(CC(C)(C)C(=O)O)n3Cc2ccc(Cl)cc2)nc1 (stereo unspecified) | 12 nM | 400 nM | IC50 [6]: 40 nM |
| CCC1Cc2c(OCc3ccc(-c4ccccc4)cn3)ccc3c2c(c(CC(C)(C)C(=O)O)n3Cc2ccc(Cl)cc2)S1 (stereo unspecified) | 33 nM | 130 nM | – |
| CC1Cc2c(OCc3ccc(-c4ccccc4)cn3)ccc3[nH]c(CC(C)(C)C(=O)O)c(c23)S1 (stereo unspecified) | 500 nM | – | inhibition [7]: 23% |
